Patent publication US20260053931A1, “MDM2 TARGETING PROTACS” (THE WISTAR INSTITUTE OF ANATOMY AND BIOLOGY, priority 2023, published 2026)
“Also recorded” adds a separate entry of the source.

Assays:
H1299 = experiment: Cell death of other cancer cell lines: H1299; format: cell-based; conditions: Homo sapiens, NCI-H1299; H1299, Lung adenocarcinoma
Procedure: (§1) The PROTACs prepared herein were tested for their use in other cancer cell lines to determine activity in multiple different types of cancer.

[1] = Mouse pharmacokinetic study, intraperitoneal; format: in vivo; conditions: single 10 mg/kg intraperitoneal dose, 0.25-6 h
Procedure: To translate cell-based activity to in vivo efficacy, the Mdm2 PROTACs were evaluated for metabolic stability and plasma compound levels after IP injection in the mouse. Mouse liver microsome stability was obtained for lead compounds (Alliance Pharma, Inc; Malvern PA) as a predictive measure for suitable exposure in a mouse pharmacokinetic study. In brief, test compounds (0.5 μM) are incubated with liver microsomes ([…]) and an NADPH-regenerating system (cofactor solution) and samples are taken at various timepoints, quenched with an acetonitrile solution containing an internal standard, then analyzed by LC-MS/MS. […] Mouse pharmacokinetic studies for YX-02-030 and YX-02-288 were completed. Mouse plasma levels were evaluated following intraperitoneal (10 mg/kg) administration. Plasma was collected at timepoints 0.25 h, 0.5 h, 1 h, 2 h, 4 h and 6 h after Mdm2 PROTAC injection. Plasma was deproteinized and analyzed for compound using LC-MS/MS methods. Three mice were used for each time point and one control animal (Alliance Pharma Inc, Malvern PA).

HH = experiment: Cell death of other cancer cell lines: HH; format: cell-based; conditions: Homo sapiens, T cell lymphoma
Procedure: as §1

RS4; 11 = experiment: Cell death of other cancer cell lines: RS4; 11; format: cell-based; conditions: Homo sapiens, 11, B-ALL
Procedure: as §1

PC9 = experiment: Cell death of other cancer cell lines: PC9; format: cell-based; conditions: Homo sapiens, PC-9; PC9, Lung adenocarcinoma
Procedure: as §1

KPCA = experiment: Cell death of other cancer cell lines: KPCA; format: cell-based; conditions: Ovarian, Mouse
Procedure: as §1

Ramos = experiment: Cell death of other cancer cell lines: Ramos; format: cell-based; conditions: Homo sapiens, Burkitt lymphoma
Procedure: as §1

[2] = In vivo tolerability, nude mice; design: species or system mouse; conditions: YX-02-030 50 mg/kg IP, YX-02-228 30 mg/kg IP, once daily
Procedure: FIGS. 25A & 25B show the in vivo tolerability tests conducted with the 2 lead Mdm2 PROTACs to evaluate tolerated doses and effects on normal tissues. Nude mice were treated with Mdm2 PROTACs, YX-02-030 (50 mg/kg; IP) and YX-02-228 (30 mg/kg; IP) once daily for 14 days. […] Fresh, surgically-resected tumor from five TNBC patients was obtained, and 80% were from Black/African American patients.
In vivo tolerability tests were conducted with the 2 lead Mdm2 PROTACs to evaluate tolerated doses and effects on normal tissues. Nude mice were treated with Mdm2 PROTACs, YX-02-030 (50 mg/kg; IP) and YX-02-228 (30 mg/kg; IP) once daily for 8 days.

SUP-T1 = experiment: Cell death of other cancer cell lines: SUP-T1; format: cell-based; conditions: Homo sapiens; SUP-T1, T-ALL
Procedure: as §1

Raji = experiment: Cell death of other cancer cell lines: Raji; format: cell-based; conditions: Homo sapiens, Burkitt lymphoma, values may change up to ±1-2 μM depending on the cell density
Procedure: as §1

mut p53 MDA-MD-231 cells = experiment: Live cell count with CellTag700 Stain in ICW format; conditions: after 24 h and 48 h treatment
Procedure: Cells are seeded in 96 half area well plates (black clear bottom) and cultured overnight. Then they are treated with compounds, fixed with 4% paraformaldehyde for 20 minutes, and permeabilized in 0.1% Triton. They are then treated with the primary antibody and secondary antibody conjugated to IRDye800CW or treated with CellTag 700 Stain. The plates are then scanned on the OdysseyCLX and the data processed to provide a dose response curve.
Since genetic deletion of Mdm2 induces p73 and induces apoptosis in p53 mutant and deficient cancer cells, YX-02-030 and YX-02-228 were evaluated for their effect on cell viability. First, the CellTag700 Stain was utilized to count the number of live cells in the ICW format.

MOLT1 = experiment: Cell death of other cancer cell lines: MOLT1; format: cell-based; conditions: Homo sapiens; MOLT1, T-ALL
Procedure: as §1

SU-DHL-8 = experiment: Cell death of other cancer cell lines: SU-DHL-8; format: cell-based; conditions: Homo sapiens; SU-DHL-8, Diffuse large B cell lymphoma
Procedure: as §1

[3] = biological target: T1, human cereblon (CRBN) complex (Homo sapiens, UniProt Q96SW2); experiment: HTRF binding assay for Cereblon (Table 2)
T1 construct: purchased R & D systems
Source text: Biochemical assays in 384-well format have established to assess the binding of newly synthesized PROTACs to the appropriate E3 ligase using HTRF technology. In these assays an anti-HIS antibody conjugated to terbium was used as the donor fluor, and either a Cy5 labeled small molecule probe, or a biotinylated peptide that is bound to a streptavidin acceptor.
Cereblon: Recombinant human cereblon (CRBN) complex, including CUL4A, RBX1, DDB1 and CRBN is purchased from R & D systems. This four-member protein complex has an N-terminal HIS tag on the CUL4A subunit. The CRBN complex is diluted in assay buffer containing anti-HIS-Tb Cryptate Gold (CisBio) and is added to low volume 384-well plates. Test compounds in 100% DMSO are added to the plates followed by the Cy5-labeled lenolidamide probe. After 1 hour the HTRF signal is measured on the Envision. Data are normalized to % inhibition. The typical signal-to-noise is 5:1. Bi-functional molecules containing the Cereblon ligands are tested in TABLE 2 (see YX-02-041).

SU-DHL-6 = experiment: Cell death of other cancer cell lines: SU-DHL-6; format: cell-based; conditions: Homo sapiens; SU-DHL-6, Diffuse large B cell lymphoma
Procedure: as §1

SEM cells = experiment: Cell death of other cancer cell lines: SEM; format: cell-based; conditions: Homo sapiens, B-ALL
Procedure: as §1

OVCAR4 = experiment: Cell death of other cancer cell lines: OVCAR4; format: cell-based; conditions: Homo sapiens, OVCAR-4; OVCAR4, Ovarian
Procedure: as §1

SKOV3 = experiment: Cell death of other cancer cell lines: SKOV3; format: cell-based; conditions: Homo sapiens, SK-OV-3; SKOV3, Ovarian
Procedure: as §1

T1 sequence (Q96SW2 whole entry): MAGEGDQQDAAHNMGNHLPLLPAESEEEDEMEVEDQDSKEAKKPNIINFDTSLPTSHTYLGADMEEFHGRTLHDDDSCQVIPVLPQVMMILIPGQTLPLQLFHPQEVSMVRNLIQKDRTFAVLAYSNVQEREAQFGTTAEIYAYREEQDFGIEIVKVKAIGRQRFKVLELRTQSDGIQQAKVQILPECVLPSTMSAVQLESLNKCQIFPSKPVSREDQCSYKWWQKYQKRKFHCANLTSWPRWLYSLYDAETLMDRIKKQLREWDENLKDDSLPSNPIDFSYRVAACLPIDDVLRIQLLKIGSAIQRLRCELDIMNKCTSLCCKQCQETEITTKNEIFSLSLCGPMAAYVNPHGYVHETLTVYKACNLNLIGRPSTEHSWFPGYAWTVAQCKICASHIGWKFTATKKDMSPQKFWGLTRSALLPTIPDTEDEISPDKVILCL
T1 sequence (Q16531 whole entry partner): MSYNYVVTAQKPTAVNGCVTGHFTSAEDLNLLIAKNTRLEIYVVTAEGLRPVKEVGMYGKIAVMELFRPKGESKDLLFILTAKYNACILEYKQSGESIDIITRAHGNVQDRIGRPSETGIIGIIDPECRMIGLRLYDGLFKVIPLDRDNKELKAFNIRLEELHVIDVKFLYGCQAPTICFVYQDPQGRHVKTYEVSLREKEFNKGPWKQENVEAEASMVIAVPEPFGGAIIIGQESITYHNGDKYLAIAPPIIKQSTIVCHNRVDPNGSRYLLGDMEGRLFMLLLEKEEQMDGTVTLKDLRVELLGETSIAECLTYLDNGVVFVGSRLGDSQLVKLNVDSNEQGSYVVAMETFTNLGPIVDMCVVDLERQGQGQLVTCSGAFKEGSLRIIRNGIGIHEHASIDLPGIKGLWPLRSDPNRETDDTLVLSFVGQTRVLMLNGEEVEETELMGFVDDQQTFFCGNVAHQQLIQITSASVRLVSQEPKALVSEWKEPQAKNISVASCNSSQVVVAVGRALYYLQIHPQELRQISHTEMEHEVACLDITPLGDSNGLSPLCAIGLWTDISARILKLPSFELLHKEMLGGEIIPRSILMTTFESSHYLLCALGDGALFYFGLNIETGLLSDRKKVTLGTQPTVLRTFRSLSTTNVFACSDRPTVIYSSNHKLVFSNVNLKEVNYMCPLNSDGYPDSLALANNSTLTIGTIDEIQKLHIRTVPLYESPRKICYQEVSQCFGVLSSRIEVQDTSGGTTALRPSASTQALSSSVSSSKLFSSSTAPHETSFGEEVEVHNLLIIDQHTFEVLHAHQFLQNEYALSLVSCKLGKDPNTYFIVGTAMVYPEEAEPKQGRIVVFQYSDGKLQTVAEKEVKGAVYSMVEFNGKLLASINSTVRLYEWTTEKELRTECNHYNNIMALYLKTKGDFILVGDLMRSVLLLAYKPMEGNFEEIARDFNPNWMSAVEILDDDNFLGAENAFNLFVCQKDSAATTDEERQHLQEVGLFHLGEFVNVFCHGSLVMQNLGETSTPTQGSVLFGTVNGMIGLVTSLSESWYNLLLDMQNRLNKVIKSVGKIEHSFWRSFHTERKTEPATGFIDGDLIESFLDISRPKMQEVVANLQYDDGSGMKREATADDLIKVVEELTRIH
T1 sequence (Q13619 whole entry partner): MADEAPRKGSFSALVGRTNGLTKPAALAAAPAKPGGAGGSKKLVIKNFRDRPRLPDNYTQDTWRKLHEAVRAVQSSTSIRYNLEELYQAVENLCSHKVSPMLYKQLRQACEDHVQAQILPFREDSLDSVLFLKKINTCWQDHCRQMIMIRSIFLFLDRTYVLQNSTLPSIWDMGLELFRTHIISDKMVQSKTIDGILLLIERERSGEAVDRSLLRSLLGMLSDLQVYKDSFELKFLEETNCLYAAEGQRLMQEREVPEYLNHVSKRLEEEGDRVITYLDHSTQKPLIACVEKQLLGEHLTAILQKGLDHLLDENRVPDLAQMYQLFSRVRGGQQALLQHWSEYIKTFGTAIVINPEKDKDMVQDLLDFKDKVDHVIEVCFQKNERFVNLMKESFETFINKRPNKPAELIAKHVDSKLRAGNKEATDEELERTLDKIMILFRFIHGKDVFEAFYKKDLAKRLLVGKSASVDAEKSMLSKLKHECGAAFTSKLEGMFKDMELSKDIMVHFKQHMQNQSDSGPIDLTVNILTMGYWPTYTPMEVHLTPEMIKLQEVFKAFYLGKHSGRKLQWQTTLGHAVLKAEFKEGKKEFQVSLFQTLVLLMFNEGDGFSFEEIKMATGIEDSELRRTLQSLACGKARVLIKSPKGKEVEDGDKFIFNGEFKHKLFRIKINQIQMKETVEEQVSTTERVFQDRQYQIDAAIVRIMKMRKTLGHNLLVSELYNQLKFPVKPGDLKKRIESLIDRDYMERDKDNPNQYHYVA
T1 sequence (P62877 whole entry partner): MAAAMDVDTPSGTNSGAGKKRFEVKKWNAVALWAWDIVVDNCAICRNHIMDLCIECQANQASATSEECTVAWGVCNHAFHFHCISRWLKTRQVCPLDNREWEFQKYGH

## CCOc1cc(C(C)(C)C)ccc1C1=N[C@](C)(c2ccc(Cl)cc2)[C@](C)(c2ccc(Cl)cc2)N1C(=O)N1CCN(CC(=O)NCCOCCOCCOCC(=O)N[C@H](C(=O)N2C[C@H](O)C[C@H]2C(=O)NCc2ccc(-c3scnc3C)cc2)C(C)(C)C)CC1 (racemic) [YX-02-030]
H1299
  IC50: 4.2 µM
[1]; 10 mg/kg
  in vivo plasma levels: prolonged in vivo plasma exposure; also recorded: plasma levels stable over 6 hours
HH
  IC50: 6.3 µM
RS4; 11
  IC50: 1.9 µM
PC9
  IC50: 4.5 µM
KPCA
  IC50: 2.9 µM
Ramos
  IC50: 3.1 µM
[2]
  blood counts: no significant change
  body weight: no significant change in body weight
  clinical observations for spleen and bone marrow: no adverse clinical observations
SUP-T1
  IC50: 5.7 µM
Raji
  IC50: 2.8 µM
Mut p53 MDA-MD-231 cells
  cytotoxic effect, number of live cells: potent cytotoxic effects
MOLT1
  IC50: 2.6 µM
SU-DHL-8
  IC50: 1.9 µM
[3]
  IC50: > 10 µM
SU-DHL-6
  IC50: 3.6 µM
SEM cells
  IC50: 3.2 µM
OVCAR4
  IC50: 4.6 µM
SKOV3
  IC50: 5.7 µM

## CCOc1cc(C(C)(C)C)ccc1C1=N[C@](C)(c2ccc(Cl)cc2)[C@](C)(c2ccc(Cl)cc2)N1C(=O)N1CCN(CC(=O)NCCCNC(=O)COc2ccc3c(c2)CN(C(=O)[C@H](NC(=O)[C@@H](C)NC)C(C)(C)C)[C@@H](C(=O)N[C@H]2CCCc4ccccc42)C3)CC1 [YX-02-228, (R)-7-(2-((3-(2-(4-((4R,5S)-2-(4-(tert-butyl)-2-ethoxyphenyl)-4,5-bis(4-chlorophenyl)-4,5-dimethyl-4,5-dihydro-1H-imidazole-1-carbonyl)piperazin-1-yl)acetamido)propyl)amino)-2-oxoethoxy)-2-((R)-3,3-dimethyl-2-((R)-2-(methylamino)propanamido)butanoyl)-N-((S)-1,2,3,4-tetrahydronaphthalen-1-yl)-1,2,3,4-tetrahydroisoquinoline-3-carboxamide]
H1299
  IC50: 5.3 µM
[1]
  in vivo plasma levels: prolonged in vivo plasma exposure
HH
  IC50: 5.5 µM
RS4; 11
  IC50: 2.5 µM
PC9
  IC50: 4.6 µM
KPCA
  IC50: 3.4 µM
Ramos
  IC50: 5.5 µM
[2]
  blood counts: no significant change
  body weight: no significant change in body weight
  clinical observations for spleen and bone marrow: no adverse clinical observations
SUP-T1
  IC50: 6 µM
Raji
  IC50: 5.9 µM
Mut p53 MDA-MD-231 cells
  cytotoxic effect, number of live cells: potent cytotoxic effects
MOLT1
  IC50: 2.7 µM
SU-DHL-8
  IC50: 4.6 µM
[3]
  IC50: > 10 µM
SU-DHL-6
  IC50: 2.9 µM
SEM cells
  IC50: 4.2 µM
OVCAR4
  IC50: 4.8 µM
SKOV3
  IC50: 3.2 µM
